Experiments:
[1] = test system: Radical scavenging activity; test: Antioxidant activity assessed as inhibition of DPPH radical formation measured every min for 45 mins by spectrophotometric analysis; assay type: functional
[2] = Antioxidant activity assessed as inhibition of ABTS radical formation for 15 mins by spectrophotometric analysis; assay type: functional

Row | Molecule | IC50 [1] [µM] | inhibition [1] | IC50 [2] [µM] | inhibition [2]
1 | O=C(O)/C=C/c1ccc(O)c(O)c1 [CAFFEIC ACID] | 18.1 | Dose-dependent effect | 17.9 | Dose-dependent effect
2 | Cc1c(C)c2c(c(C)c1O)CCC(C)(C(=O)O)O2 (stereo unspecified) [TROLOX] | 30.9 | Dose-dependent effect | 26.3 | Dose-dependent effect
3 | VITAMIN E [listing 1 of 2 here] | – | Dose-dependent effect | – | Dose-dependent effect
4 | O=C(O)c1cc(O)c(O)c(O)c1 [GALLIC ACID] | 9.9 | Dose-dependent effect | 7.8 | Dose-dependent effect
5 | CCOC(=O)C(=Cc1cc(O)c(O)c(O)c1)C(=O)OCC | 12.8 | Dose-dependent effect | 7.7 | Dose-dependent effect
6 | VITAMIN E [listing 2 of 2 here] | 31.1 | – | 26.8 | –
7 | CCOC(=O)/C=C/c1cc(O)c(O)c(O)c1 | 15.1 | Dose-dependent effect | 9 | Dose-dependent effect
8 | O=C(O)/C=C/c1cc(O)c(O)c(O)c1 | 11.8 | Dose-dependent effect | 7.2 | Dose-dependent effect
9 | CCOC(=O)C(=Cc1ccc(O)c(O)c1)C(=O)OCC | 21.9 | Dose-dependent effect | 21.1 | Dose-dependent effect
10 | CCOC(=O)/C=C/c1ccc(O)c(O)c1 [ETHYL CAFFEATE] | 26.6 | Dose-dependent effect | 22.6 | Dose-dependent effect
